Reference: US5985630A, “Assay for detecting inhibitors of aminoacyl-tRNA synthetases” (Zeneca Limited, priority 1993, dated 1999)

Tests used:
[1] = molecular target: T1, E. coli ITRS (isoleucyl-tRNA synthetase) (Escherichia coli, UniProt P00956); assay: 3H-isoleucine-based radiolabelled (standard radiometric) assay; type: biochemical; conditions: for IC50: standard 3H-isoleucine radiometric assay, 10 μM isoleucine, 1 mM ATP, 37° C., read-out: Concentration giving 50% inhibition (I50); for Mode of inhibition: with respect to the amino acid substrate, Compound 1 at 0, 0.25 μM and 1.0 μM with varying 3H-isoleucine up to 100 μM
T1 construct: endogenous in cells; enzyme partially purified in house
T1 sequence (P00956 whole entry): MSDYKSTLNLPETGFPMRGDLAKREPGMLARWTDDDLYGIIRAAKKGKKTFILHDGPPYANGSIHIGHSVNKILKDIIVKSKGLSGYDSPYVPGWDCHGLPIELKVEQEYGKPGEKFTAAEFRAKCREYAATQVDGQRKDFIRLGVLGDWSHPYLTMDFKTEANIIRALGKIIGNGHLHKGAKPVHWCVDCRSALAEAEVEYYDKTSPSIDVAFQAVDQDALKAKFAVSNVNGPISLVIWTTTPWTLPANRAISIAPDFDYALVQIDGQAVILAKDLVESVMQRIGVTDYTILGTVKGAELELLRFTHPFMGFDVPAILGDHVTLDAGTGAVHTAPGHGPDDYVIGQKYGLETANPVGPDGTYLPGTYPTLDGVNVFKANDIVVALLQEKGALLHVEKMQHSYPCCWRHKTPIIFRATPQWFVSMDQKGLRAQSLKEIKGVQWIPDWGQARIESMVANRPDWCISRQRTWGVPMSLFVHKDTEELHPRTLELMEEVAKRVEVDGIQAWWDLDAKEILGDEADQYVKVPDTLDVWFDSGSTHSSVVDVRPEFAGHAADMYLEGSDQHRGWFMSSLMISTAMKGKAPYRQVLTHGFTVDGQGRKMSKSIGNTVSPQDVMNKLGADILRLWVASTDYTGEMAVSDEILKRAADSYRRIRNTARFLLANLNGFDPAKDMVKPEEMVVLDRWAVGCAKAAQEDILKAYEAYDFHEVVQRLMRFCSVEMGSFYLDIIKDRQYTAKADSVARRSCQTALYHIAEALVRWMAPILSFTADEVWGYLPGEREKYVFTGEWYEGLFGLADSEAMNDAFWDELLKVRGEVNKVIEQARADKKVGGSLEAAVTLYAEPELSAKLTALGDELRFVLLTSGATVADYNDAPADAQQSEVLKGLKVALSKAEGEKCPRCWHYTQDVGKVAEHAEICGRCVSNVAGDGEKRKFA
Protocol: 2. Measurement of ITRS Activity using a ^3 H-Isoleucine-Based Radiolabelled Assay
The activity of ITRS during fractionation was monitored using conditions based on the method described by Steinmetz and Weil (7), and as described below. Stock reagents used in the method are as follows:
(§1) Prepared as described above. The specific activity of the enzyme used in the present example was approximately 145 nM of product formed/minute/mg, and was about 5%-10% active. The enzyme was diluted as appropriate. It will be appreciated that the enzyme amounts in the assay can be adjusted according to the purity of the enzyme used.
(§2) The assay mixture for a final volume of 200 μl was composed of:
The standard assay (in 200 μl) was carried out in quadruplicate in Eppendorf microcentrifuge tubes. The ingredients were preincubated for 2-3 minutes at 37° C., and the reaction started by addition of approximately 20 μl of the appropriately diluted enzyme extract as described above.
The final reaction contained reagents in the following concentrations:
0.1% bovine serum albumin
10 μM Isoleucine containing ^3 H-Ile
The assay was incubated at 37° C. for 20 minutes, and stopped by addition of 50 μl 20% TCA, and the tubes placed on ice.
200 μl of the reaction mixture was pipetted onto 1.5 cm^2 cellulose 3MM filters. The filters were washed (in groups of 4) as follows: 1×10% TCA, 2×5% TCA, and 2×ethanol using fresh wash medium for each set of replicates to avoid cross contamination. The dried filters were placed in 20 ml scintillation vials and the radioactivity counted in 15 ml Optiphase.
The inhibition constants of two compounds were measured and the results compared with the values obtained using the standard ^3 H-isoleucine assay.

[2] = molecular target: T1, E. coli ITRS (isoleucyl-tRNA synthetase); assay: Colorimetric assay based on valine as substrate (valine-based assay of the invention); type: biochemical; conditions: 15 mM valine, 0.75 mM ATP, 37° C., read-out: Concentration giving 50% inhibition (I50)
Protocol: 2. Measurement of ITRS activity using a Colorimetric Assay based on using Valine as Substrate
Incubations were set up in quadruplicate (as above) with a final volume of 200 μl as described below. Stock reagents used in the method were as follows:
as §1, §2
The standard assay (in 200 μl) was carried out in quadruplicate in Eppendorf microcentrifuge tubes. The ingredients were pre-incubated for 2-3 minutes at 37° C. and the reaction started by addition of 20 μl of appropriately diluted enzyme extract (as described above).
Thus the final reaction contained reagents in the following concentrations:
0.12 mg of mixed tRNA species from E. coli (as described above) HPLC purified from […] available from by Sigma (UK) Ltd 1 unit/μl of inorganic pyrophosphatase and
an appropriate concentration of ITRS (for example […] of the enzyme as described above).
The samples were incubated at 37° C. for 20-60 minutes. […] The optical absorbance is then measured at a wavelength of 630 nm using a spectrophotometer.

CC(=O)C(C)C1OC1CC1COC(CC(C)=CC(=O)O)C(O)C1O (stereo not shown) [Compound 1]
IC50 [1]: 109 nM | Mode of inhibition [1]: competitive with respect to isoleucine | Mode of inhibition ([1]; listed as compound 1): competitive with the amino acid | IC50 [2]: 2000 nM

C=COCCOC(=O)C=C(C)CC1OCC(CC2OC2C(C)C(C)O)C(O)C1O (stereo not shown) [Compound 2]
IC50 [1]: 2.3 nM | Mode of inhibition [1]: competitive with the amino acid | IC50 [2]: 38 nM
